Experimental findings from patent US20040009955A1, “Method of prophylaxis” (priority 2002, published 2004) are described below.

In the assay the test system is MT-1 breast cancer cells. Kind of assay: Symptom free survival of nude rats inoculated with MT-1 breast cancer cells (treatment efficacy against skeletal metastases). The conditions noted are these: for increase in survival relative to the control: Wilcoxon rank sum test. It counts as in vivo, nude rats (Han: rnu/rnu Rowett).
[1] abbreviates: Without Aredia, 300 kBq/ka ^223Ra (regimen A).

SMILES strings stand for the structures.

Procedure: The effect of ^223Ra in prolonging symptom free survival of rate was studied for two treatment regimens [A] comparative and [B] according to the invention.
Treatment regimen [A]: Animals were treated seven days after tumor cell inoculation. At this time animal body weights varied between 80 and 110 grams and animals were randomized in groups so the average weight for a group was about 100 g at the time of treatment. The treatment groups received 11 or 30 kBq of ^223Ra administered by tail vein injection while animals in the control group were injected with an equivalent volume of 5 mM sodium citrate solution.
Treatment regimen [B]: 3-Amino-1-hydroxypropylidene bisphosphonate, di-sodium salt (Aredia™, Novartis AG, Switzerland), was added as a supplemental treatment to ^223Ra. Animals in the treatment groups were treated on day 7 after tumor cell inoculation with 10 or 30 kBq of ^223Ra. The following day, 1.5 mg/kg b.w. of Aredia™, was administered by i.v. injection. Animals in the control group received 5 mM sodium citrate solution on day 7 and 1.5 mg/kg b.w. of Aredia™ on day 8.
Symptom free animals were followed for at least 50 days after the treatment. The significance of treatment response was related to symptom free survival and evaluated using the Wilcoxon rank sum test.

As to `[223Ra]` [^223Ra, radium-223], the “survival improvement compared to the control group” value (60 kBq ^223Ra, regimen A) is given as “not significant”. Where the note is “60 kBq ^223Ra, regimen A (1/5)”, this molecule showed a symptom free survivors of 20%. Besides, where the note is “100 kBq/kg ^223Ra, regimen A (5/14)”, the “symptom free survivors beyond 50 days” value is 36%. For the same molecule, the “increase in survival relative to the control” value is given as “significant at the 1% level” (100 kBq/kg ^223Ra, regimen A) and “significant at the 1% level” (300 kBq/kg ^223Ra, regimen A). Moreover, under “100 kBq/kg and 300 kBq/kg ^223Ra groups taken together, regimen A, P <0.05”, the “increase in survival compared to the control group, groups taken together” value is “significant”. The “Survival beyond 67 day” value (Without Aredia, 100 kBq/kg ^223Ra (regimen A)) is recorded as 33% and the “Survival beyond 67 day” value under setting [1] was 0%. Moreover, the “Mean survival” value came to 38 days (Without Aredia, 100 kBq/kg ^223Ra i.v. day 7 after tumor cell inoculation (regimen A)) and 38 days (Without Aredia, 300 kBq/ka ^223Ra i.v. day 7 (regimen A)). Further, the Survival range under setting [1] is reported as 27-61.
